# Values of other authors as cited in article PMC9869109 (Angewandte Chemie (International ed. in English), 2022).
# System: cell nuclei
# Conditions: previous result ref 12
substance,measurement,value
NBD-llllpY,nuclear-targeting ability,weak nuclear-targeting ability
